In assay [1] the test system is Parent Chili (Tr1) (RNA, aptamer) GGCUAGCUGGAGGGGCGCCAGUUCGCUGGUGGUUGGGUGCGGUCGGCUAGCC
Briefly: X-ray crystallography. The note with it: K+ 50 mM, Mg2+ 5 mM, 10 mM HEPES pH 8.0, then MES pH 5.4-5.8, spermine, PEG 400.

Assay [2] deals with Chili P1-1 (Tr4) (RNA, aptamer) GGCAGCUGGAGGGGCGCCAGUUCGCUGGUGGUUGGGUGCGGUCGGCUGCC
Briefly: fluorescence activation. The settings on record: K+ 125 mM, Mg2+ 5 mM; 40 mM HEPES pH 7.5; 1 µM RNA and ligand; >80% of parent.

Assay [3] concerns Chili P1-2 (Tr5) (RNA, aptamer) GGAGCUGGAGGGGCGCCAGUUCGCUGGUGGUUGGGUGCGGUCGGCUCC
Briefly: fluorescence activation. The note with it: K+ 125 mM, Mg2+ 5 mM; 40 mM HEPES pH 7.5; 1 µM RNA and ligand; >80% of parent.

In assay [4] the test system is Chili P1-3 (Tr6) (RNA, aptamer) GGACUGGAGGGGCGCCAGUUCGCUGGUGGUUGGGUGCGGUCGGUCC
Description: fluorescence activation. The note with it: K+ 125 mM, Mg2+ 5 mM; 40 mM HEPES pH 7.5; 1 µM RNA and ligand; >80% of parent.

For assay [5], the system named is Chili P1C (Tr2) (RNA, aptamer) GGCUAGCCGGAGGGGCGCCAGUUCGCUGGUGGUUGGGUGCGGUCGGCUAGCC
Briefly: fluorescence activation. The settings on record: K+ 125 mM, Mg2+ 5 mM; 40 mM HEPES pH 7.5; 1 µM RNA and ligand; slower maturation than parent.

In assay [6] the test system is Chili P1A (Tr3) (RNA, aptamer) GGCUAGCUGGAGGGGCGCCAGUUCGCUGGUGGUUGGGUGCGGUCAGCUAGCC
Description: fluorescence activation. The note with it: K+ 125 mM, Mg2+ 5 mM; 40 mM HEPES pH 7.5; 1 µM RNA and ligand; slower maturation than parent.

Assay [7] has as its system circularly permuted Chili aptamer (Tr10) (RNA, aptamer) GGGUGCGGUCAGUCCGGAAGGACUGGAGGGGCGCCAGUUCGCUGGUGGUU
Briefly: fluorescence activation. The note with it: K+ 125 mM, Mg2+ 5 mM; 40 mM HEPES pH 7.5; 75% of P1A fluorescence enhancement.

The test system of assay [8] is Parent Chili (Tr1) (RNA, aptamer) GGCUAGCUGGAGGGGCGCCAGUUCGCUGGUGGUUGGGUGCGGUCGGCUAGCC
Description: fluorescence activation. The note with it: 40 mM HEPES pH 7.5.

Assay [9] relates to c7G15 Chili with r4CI at 34 (R3 ligated to R4) (RNA, aptamer, 7-deazaguanine (c7G) at 15; 4-cyanoindole ribonucleoside (r4CI) replaces U34; 3'-phosphate on printed 3' fragment) GGCUAGCUGGAGGGGCGCCAGUUCGCUGGUGGUUGGGUGCGGUCGGCUAGCC
Description: FRET from r4CI to ligand. The note with it: K+ 125 mM, Mg2+ 5 mM; 40 mM HEPES pH 7.5.

Assay [10] concerns c7G15 Chili with r4CI at 46 (R3 ligated to R5) (RNA, aptamer, 7-deazaguanine (c7G) at 15; 4-cyanoindole ribonucleoside (r4CI) replaces G46; 3'-phosphate on printed 3' fragment) GGCUAGCUGGAGGGGCGCCAGUUCGCUGGUGGUUGGGUGCGGUCGGCUAGCC
Briefly: FRET from r4CI to ligand. The note with it: K+ 125 mM, Mg2+ 5 mM; 40 mM HEPES pH 7.5.

For assay [11], the system named is Chili G15A (Tr12) (RNA, aptamer) GGCUAGCUGGAGGGACGCCAGUUCGCUGGUGGUUGGGUGCGGUCGGCUAGCC
Briefly: absorbance and fluorescence. The settings on record: K+ 125 mM, Mg2+ 5 mM; 40 mM HEPES pH 7.5; 5 µM RNA and ligand.

In assay [12] the test system is Chili C40U (Tr13) (RNA, aptamer) GGCUAGCUGGAGGGGCGCCAGUUCGCUGGUGGUUGGGUGUGGUCGGCUAGCC
Description: absorbance and fluorescence. The note with it: K+ 125 mM, Mg2+ 5 mM; 40 mM HEPES pH 7.5; 5 µM RNA and ligand; 30% reduced fluorescence.

The subject of assay [13] is Chili G15A/C40U (Tr14) (RNA, aptamer) GGCUAGCUGGAGGGACGCCAGUUCGCUGGUGGUUGGGUGUGGUCGGCUAGCC
Description: absorbance and fluorescence. The note with it: K+ 125 mM, Mg2+ 5 mM; 40 mM HEPES pH 7.5; 5 µM RNA and ligand; binding site only partially restored.

Assay [14] relates to c7G15-modified Chili (R3 ligated to R2) (RNA, aptamer, 7-deazaguanine (c7G) at 15; 3'-phosphate on printed 3' fragment) GGCUAGCUGGAGGGGCGCCAGUUCGCUGGUGGUUGGGUGCGGUCGGCUAGCC
Briefly: absorbance and fluorescence. The note with it: K+ 125 mM, Mg2+ 5 mM; 40 mM HEPES pH 7.5; 10 µM RNA and ligand (absorbance).

These results are taken from paper PMC8192780 (2021).

Molecules are shown by their SMILES.

For `COc1cc(/C=C2\N=C(C)N(c3ccc([N+](C)(C)C)cc3)C2=O)cc(OC)c1O`, the binding result in [1] (2.95 Å), in assay [2], in [3], in [4], in assay [5] and in assay [6] was “yes” each time. Moreover, the binding result in [7] is given as “yes”.
Consider `COc1cc(/C=C2N=C(/C=N/O)N(c3ccc([N+](C)(C)C)cc3)C\2=O)cc(OC)c1O`, for which the binding result was “yes” in assay [1] (2.25 Å); “yes” in assay [8] (Na+ (replaces K+, 125 mM), 25% residual intensity against K+); “yes” in assay [8] (Tl+ (replaces K+, 125 mM), intensity preserved against K+); “no” in [9]; “no” in assay [10]; “no” in [11]. For the same molecule, the binding entry in assay [12] was “yes”; in [13], “yes”; in assay [14] it was “no”.
